Read-outs that look alike come from different tables or passages of the source. Where only a bound is given, the exact number is not on record here.

The target in one data set is HDAC2 (Homo sapiens, UniProt Q92769). The data set can be described thus: HDAC2 enzymatic inhibition. Format: biochemical.
The target of data set [1] is T1, HDAC6 (Homo sapiens, UniProt Q9UBN7).
T1 sequence (Q9UBN7 1-1215): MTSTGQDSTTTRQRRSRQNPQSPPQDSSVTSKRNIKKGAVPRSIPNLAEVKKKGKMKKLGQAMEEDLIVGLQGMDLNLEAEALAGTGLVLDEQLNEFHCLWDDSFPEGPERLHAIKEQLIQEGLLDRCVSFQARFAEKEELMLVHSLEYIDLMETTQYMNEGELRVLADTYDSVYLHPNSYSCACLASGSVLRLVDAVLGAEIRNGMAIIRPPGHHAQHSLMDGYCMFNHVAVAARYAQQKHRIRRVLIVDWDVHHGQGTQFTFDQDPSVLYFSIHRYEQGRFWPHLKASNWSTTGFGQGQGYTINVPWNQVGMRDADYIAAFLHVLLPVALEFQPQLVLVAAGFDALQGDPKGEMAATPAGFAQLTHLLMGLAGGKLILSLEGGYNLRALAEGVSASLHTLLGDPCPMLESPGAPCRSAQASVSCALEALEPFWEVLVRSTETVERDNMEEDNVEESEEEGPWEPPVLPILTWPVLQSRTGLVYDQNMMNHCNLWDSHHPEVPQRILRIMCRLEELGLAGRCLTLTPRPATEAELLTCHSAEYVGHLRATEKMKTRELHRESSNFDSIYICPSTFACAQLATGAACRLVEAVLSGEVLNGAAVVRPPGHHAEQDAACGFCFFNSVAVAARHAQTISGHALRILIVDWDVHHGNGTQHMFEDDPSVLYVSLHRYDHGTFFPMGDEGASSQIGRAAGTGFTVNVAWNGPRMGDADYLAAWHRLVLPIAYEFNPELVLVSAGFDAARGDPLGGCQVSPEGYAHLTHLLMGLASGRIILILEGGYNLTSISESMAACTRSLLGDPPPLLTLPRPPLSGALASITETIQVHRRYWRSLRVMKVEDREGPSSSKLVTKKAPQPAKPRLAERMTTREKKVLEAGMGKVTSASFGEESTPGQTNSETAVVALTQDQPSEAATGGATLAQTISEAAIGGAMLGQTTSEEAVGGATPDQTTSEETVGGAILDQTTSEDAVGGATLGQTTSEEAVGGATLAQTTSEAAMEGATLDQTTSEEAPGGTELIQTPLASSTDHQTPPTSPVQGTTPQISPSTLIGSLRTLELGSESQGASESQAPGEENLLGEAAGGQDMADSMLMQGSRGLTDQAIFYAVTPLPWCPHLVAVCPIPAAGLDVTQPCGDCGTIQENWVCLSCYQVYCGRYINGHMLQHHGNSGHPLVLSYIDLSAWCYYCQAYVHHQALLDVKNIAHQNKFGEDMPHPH
The data set can be described thus: HDAC6 enzymatic inhibition. It counts as biochemical.

The target in another data set is HDAC1 (Homo sapiens, UniProt Q13547). The data set can be described thus: HDAC1 enzymatic inhibition. Format: biochemical.
Sequence of HDAC1 (Q13547 whole entry, species assumed): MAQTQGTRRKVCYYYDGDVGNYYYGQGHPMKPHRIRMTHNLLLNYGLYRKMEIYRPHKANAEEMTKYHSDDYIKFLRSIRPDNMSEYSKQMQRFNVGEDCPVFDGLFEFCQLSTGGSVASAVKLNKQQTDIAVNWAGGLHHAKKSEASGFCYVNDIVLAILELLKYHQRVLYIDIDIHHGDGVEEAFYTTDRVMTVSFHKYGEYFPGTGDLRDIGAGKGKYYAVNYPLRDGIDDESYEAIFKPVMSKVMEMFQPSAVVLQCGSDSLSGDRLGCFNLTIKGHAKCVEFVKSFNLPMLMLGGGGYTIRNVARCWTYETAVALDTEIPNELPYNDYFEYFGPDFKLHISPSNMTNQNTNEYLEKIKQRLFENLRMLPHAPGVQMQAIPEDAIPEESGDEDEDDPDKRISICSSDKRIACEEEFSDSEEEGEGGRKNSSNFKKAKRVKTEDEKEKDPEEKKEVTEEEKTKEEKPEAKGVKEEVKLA
The conditions of data set [2]: IP, cited from earlier work; for behavior of the mice: 0.5 to 400 mg/kg.
For data set [3], the system named is nonmalignant cells (267-B1 and RWPE-1). As to conditions: cited from earlier work.
The next data set relates to PC-3 tumors. Particulars: cited from earlier work; for tumor growth: IP, 28 days, 0.5 mg/kg; for mortality or body-weight loss: during the treatment, 0.5 mg/kg IP.
The test system of the next data set is Caco-2 cells. As to conditions: cited from earlier work; for permeability classification: moderately permeable = 2 × 10^−6 cm/s < Papp(A–B) < 20 × 10^−6 cm/s.
Data set [4] deals with T1, HDAC6. Particulars: read-out: HDAC6 IC50, cited from earlier work.
The subject of the next data set is total HDACs. Particulars: read-out: Total HDAC (IC50); cited from earlier work.
The subject of data set [5] is prostate cancer cells (PC-3 and LNCap). As to conditions: cited from earlier work.
Data set [6] has as its system Ac-H4 in spleen, brain and liver. Particulars: 0.5 to 400 mg/kg, after 4 h treatment, dose-dependent; cited from earlier work.
For data set [7] the following is noted: mice, 400 mg/kg, IP, plasma; cited from earlier work.
The test system of data set [8] is primary cortical neurons. As to conditions: cited from earlier work; for neuroprotection: at 10 μM.
A further data set deals with dendritic spine density. As to conditions: 50 mg/kg, IP; cited from earlier work.
In data set [9] the test system is N2a cells overexpressing hAPP. Particulars: 5 μM, 24 h; cited from earlier work.
The test system of the next data set is hAPP 3 × Tg mice. Particulars: 50 mg/kg, IP, four weeks, cited from earlier work.
In data set [10] the test system is primary cortical neurons. Particulars: 5 μM, 24 h; cited from earlier work.
Data set [11] deals with monomorphic malignant human glioma cells (A172, U373MG, and T98G). Particulars: cited from earlier work.
For the next data set, the target named is T2, HDAC8 (Homo sapiens, UniProt Q9BY41).
T2 sequence (Q9BY41 1-377): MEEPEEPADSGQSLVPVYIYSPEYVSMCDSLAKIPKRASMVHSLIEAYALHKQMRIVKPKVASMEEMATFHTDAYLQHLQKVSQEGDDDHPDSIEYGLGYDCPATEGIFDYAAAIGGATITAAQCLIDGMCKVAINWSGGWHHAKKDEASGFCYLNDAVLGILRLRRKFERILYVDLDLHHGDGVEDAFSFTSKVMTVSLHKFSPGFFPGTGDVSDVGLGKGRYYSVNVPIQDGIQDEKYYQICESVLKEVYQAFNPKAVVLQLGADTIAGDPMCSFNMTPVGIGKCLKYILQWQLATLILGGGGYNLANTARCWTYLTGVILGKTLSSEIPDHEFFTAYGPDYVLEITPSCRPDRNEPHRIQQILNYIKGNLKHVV
As to conditions: read-out: HDAC8 IC50; cited from earlier work.

Sequence of HDAC2 (Q92769 whole entry, species assumed): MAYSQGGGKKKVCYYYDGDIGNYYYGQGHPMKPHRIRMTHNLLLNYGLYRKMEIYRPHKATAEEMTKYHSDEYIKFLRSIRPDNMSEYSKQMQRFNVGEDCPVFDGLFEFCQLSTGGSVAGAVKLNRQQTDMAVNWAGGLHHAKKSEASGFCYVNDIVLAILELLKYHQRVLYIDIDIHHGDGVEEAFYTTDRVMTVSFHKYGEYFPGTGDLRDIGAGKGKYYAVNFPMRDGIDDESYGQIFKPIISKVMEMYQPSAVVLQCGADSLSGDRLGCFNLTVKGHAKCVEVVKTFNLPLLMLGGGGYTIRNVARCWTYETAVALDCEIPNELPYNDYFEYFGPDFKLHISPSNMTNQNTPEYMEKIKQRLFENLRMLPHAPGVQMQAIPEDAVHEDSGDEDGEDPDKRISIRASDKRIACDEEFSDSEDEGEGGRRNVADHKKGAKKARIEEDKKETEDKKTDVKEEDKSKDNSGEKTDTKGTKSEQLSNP

In the case of `O=C(CS)NCCCCCC(=O)Nc1ccccc1` [Compound 11], the IC50 on HDAC2 was over 30000 nM; at HDAC6 [1] it was 340 nM; against HDAC1, 3760 nM. Besides, the “SI, HDAC1/6 selectivity index” value at HDAC6 [1] (HDAC1/HDAC6, text prints -folds) came out at 11.1.
Consider `CN(C)c1ccc(C(=O)NCCCCCNC(=O)CS)cc1` [Compound 20], for which the “behavior of the mice” value in data set [2] is recorded as “remain normal”. For the same molecule, the “inhibitory effects on nonmalignant cells” value in data set [3] is given as “no apparent inhibitory effects”. Also, in the data set with PC-3 tumors, the tumor growth entry is reported as “significant inhibition on the tumor growth” and the “mortality or body-weight loss” value is reported as “no mortality or body-weight loss”. In addition, the permeability classification result in the data set with Caco-2 cells is “moderately permeable”. For the same molecule, the 50% inhibitory concentration (IC50) on HDAC6 [4] (Table 1) is 110 nM. Besides, the IC50 with total HDACs is 200 nM. Further, the anti-proliferative effects result in [5] is “low-micromolar levels of anti-proliferative effects”. Further, the “Ac-H4 levels in the spleen” value in [6] is “significantly increased”. Besides, in [7], the CL is recorded as 4.87 ± 0.2 L/h.
In the case of `Cc1onc(-c2ccccc2)c1C(=O)NCCCCCNC(=O)CS` [Compound 34], the neuroprotection result in the data set with primary cortical neurons [8] was “full neuroprotection”.
For `Cc1onc(-c2ccccc2)c1C(=O)NCCCCCNC(=O)[C@H](C)S` [Compound 37], the “prevention of glutathione depletion” value with primary cortical neurons [8] is “ability to prevent glutathione depletion”.
As for `Cc1onc(-c2ccccc2)c1COCCCCCNC(=O)[C@H](C)S` [Compound 41], the “prevention of glutathione depletion” value in the data set on primary cortical neurons [8] is “ability to prevent glutathione depletion”.
Regarding `Cc1onc(-c2ccccc2)c1C=CCCCCCNC(=O)C(C)S` (stereo not drawn) [Compound 45], the neuroprotection result in the data set on primary cortical neurons [8] was “neuroprotective effects”.
For the molecule `Cc1noc(-c2ccccc2)c1C#CCCCCCNC(=O)C(C)S` (stereo not drawn) [Compound 49], the neuroprotection result in the data set with primary cortical neurons [8] was “neuroprotective effects”.
For `Cc1noc(-c2cccc(F)c2)c1C#CCCCCCNC(=O)C(C)S` (stereo not drawn) [Compound 50], the neuroprotection entry in the data set on primary cortical neurons [8] is “neuroprotective effects”.
For the molecule `O=C(CS)NCCCCCC(=O)Nc1cccc2cccnc12` [Compound 63], the dendritic spine density entry in the data set on dendritic spine density is “promotes dendritic spine density”. Also, in data set [2] (400 mg/kg), the “time to full recovery” value is at most 1 h. Further, the “behavior of the mice” value in data set [2] was “incapacitated 15 min after treating”. In data set [9], the “increase of cell surface APP” value is given as “two-fold”. Moreover, in the data set on hAPP 3 × Tg mice, the Aβ levels entry was “decreased” and the “phosphorylated tau (Thr181) levels” value was “decreased”. The “learning and memory deficits” value in the data set with hAPP 3 × Tg mice (aged mice (9-10-month-old)) was “alleviated the learning and memory deficits”. Further, the “increase of cell surface APP” value in the data set on primary cortical neurons [10] is “two-fold”. Also, the “inhibitory effects on nonmalignant cells” value in [3] is “no apparent inhibitory effects”. Besides, in the data set on PC-3 tumors, the tumor growth result is recorded as “significant inhibition on the tumor growth” and the “mortality or body-weight loss” value was “no mortality or body-weight loss”. Besides, in the data set with Caco-2 cells, the “transporters responsible for the efflux” value was “P-glycoprotein (P-gp) and multidrug resistance-associated protein 1 (MRP1)”; the permeability classification entry was “moderately permeable”. Moreover, on HDAC6 [4] (Table 3), the concentration for half-maximal inhibition (IC50) is 90 nM. Further, the half-inhibitory concentration (IC50) in the data set with total HDACs is 40 nM. In [11] (A172 and U373MG cells), the “levels of Ac-H3” value is given as “without influence” and the “levels of Ac-Tub” value is on record as “significantly enhanced”. Besides, the “cell migration and invasion” value in data set [11] (A172 cells) was “reduced cell migration and invasion”. The “phosphorylation of FAK/STAT3” value in data set [11] is “suppress the phosphorylation of FAK/STAT3”. Further, the “cytotoxicity in glioma cells” value in data set [11] (concentrations up to 50 μM) is recorded as “did not show cytotoxicity”. Besides, the anti-proliferative effects entry in data set [5] is “low-micromolar levels of anti-proliferative effects”. The “Ac-H4 levels in the spleen” value in data set [6] was “significantly increased”. Moreover, in [7], the CL is 4.05 ± 0.15 L/h.
Take `O=C(CS)NCCCCCn1ccc2cc(Cl)c(Cl)cc21` [Compound 74]: the IC50 at HDAC6 [1] was 2330 nM; at HDAC1, over 30000 nM. Moreover, the “SI, HDAC1/6 selectivity index” value at HDAC6 [1] is over 12.8.
For `O=C(NO)c1ccccc1` [phenylhydroxamate, reference compound], the values for the concentration for half-maximal inhibition (IC50) on HDAC8 and on HDAC6 [4] were 1900 nM and 115 nM, respectively.

One may read the IC50 as the concentration needed to halve the response being measured.

Values taken from publication PMC7744439 (European journal of medicinal chemistry, 2020).
